Data published in patent publication US11072581B2, “N-acyl-arylsulfonamide derivatives as aminoacyl-tRNA synthetase inhibitors” (Oxford Drug Design Limited, priority 2015, dated 2021).

Columns and labels:
Format in all cases: biochemical
Conditions in all cases: i.a. = inactive at a concentration below 50 uM
[1] = target: T1, SauVRS (valyl-tRNA synthetase from Staphylococcus aureus) (Staphylococcus aureus, UniProt Q2FXR8); assay: aaRS aminoacylation assay (ATP consumption), SauVRS
T1 construct: made in house; host or cells: Escherichia coli M15
T1 sequence (Q2FXR8 1-876): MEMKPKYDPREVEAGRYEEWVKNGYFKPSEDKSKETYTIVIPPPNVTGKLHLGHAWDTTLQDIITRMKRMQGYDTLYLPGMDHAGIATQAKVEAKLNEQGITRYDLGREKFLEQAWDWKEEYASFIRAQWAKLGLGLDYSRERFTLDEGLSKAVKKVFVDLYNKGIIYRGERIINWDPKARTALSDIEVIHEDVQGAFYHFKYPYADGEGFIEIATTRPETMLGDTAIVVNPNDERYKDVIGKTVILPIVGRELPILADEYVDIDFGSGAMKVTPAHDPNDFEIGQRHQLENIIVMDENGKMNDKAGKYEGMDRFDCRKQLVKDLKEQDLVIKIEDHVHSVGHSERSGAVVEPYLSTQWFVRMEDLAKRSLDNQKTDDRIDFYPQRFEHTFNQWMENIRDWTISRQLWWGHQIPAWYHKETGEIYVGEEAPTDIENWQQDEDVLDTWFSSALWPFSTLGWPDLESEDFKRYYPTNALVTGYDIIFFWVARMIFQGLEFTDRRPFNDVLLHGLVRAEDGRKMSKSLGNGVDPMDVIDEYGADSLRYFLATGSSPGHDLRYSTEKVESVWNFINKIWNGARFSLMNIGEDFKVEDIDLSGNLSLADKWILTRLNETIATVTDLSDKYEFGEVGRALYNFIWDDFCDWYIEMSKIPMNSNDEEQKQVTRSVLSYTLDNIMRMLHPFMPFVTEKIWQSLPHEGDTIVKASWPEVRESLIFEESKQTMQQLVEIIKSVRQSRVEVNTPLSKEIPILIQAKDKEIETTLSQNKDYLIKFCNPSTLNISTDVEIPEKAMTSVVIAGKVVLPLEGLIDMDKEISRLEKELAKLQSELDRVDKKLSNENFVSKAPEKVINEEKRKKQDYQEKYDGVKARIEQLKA
Method: (§1) The compounds have been tested for antibacterial activity in vitro as aminoacyl-tRNA synthetases (aaRS) inhibitors following the following process.
(§2) Leucyl-, valyl- and isoleucyl-tRNA synthetases (LRS, VRS and IRS, respectively) from Escherichia coli (Eco) and Staphylococcus aureus (Sau).
(§3) Escherichia coli M15 cells transformed with plasmid pQE-60, or pQE-70, containing the open-reading frame sequence of one targeted aaRS were induced with 1 mM IPTG (Isopropyl β-D-1-thiogalactopyranoside) for 3 h at 37° C. Bacterial cells were harvested and lysed with 20 mM NaH2PO4 (pH 8.0), 200 mM NaCl, 10 mM imidazole and protease inhibitor cocktail (Roche). Pathogenic aaRS was purified by nickel affinity standard chromatography. Protein concentration was determined by spectrophotometry.
(§4) tRNA^Leu, tRNA^Val and tRNA^Ile from E. coli and S. aureus were transcribed in vitro for 4 h at 37° C. using T7 RNA polymerase. Transcription reaction contained 40 mM Tris-HCl (pH 8.0), 22 mM MgCl2, 1 mM spermidine, 5 mM DTT, 0.01% Triton X-100, 4 mM GTP, 4 mM ATP, 4 mM UTP, 4 mM CTP, 16 mM GMP, […] T7 RNA polymerase and 150 μg BstNI digested plasmid. Once finished, the reaction was applied on a 6% polyacrylamide-8 M urea denaturing gel to purify the transcribed tRNA and discard any impurities. Purified tRNA was quantified with Nanodrop 2000 (Thermo Scientific).
(§5) The aminoacylation reaction catalyzed by aminoacyl-tRNA synthetases (aaRS) takes place in two steps. In the first step, aaRS activates its cognate amino acid with ATP; and in the second step the activated amino acid is loaded to its corresponding tRNA. This reaction can be summarized as follows: ARS+aa+ATP=ARS-aa-AMP+PPi ARS-aa-AMP+tRNA=aa-tRNA+AMP+ARS [2] (ARS, Aminoacyl-tRNA synthetase; aa, amino acid; ARS-aa-AMP, enzyme-bound to aminoacyl-adenylate; aa-tRNA, aminoacyl-tRNA).
(§6) The activity of the pathogenic aaRSs was monitored by measuring the ATP consumption rate, since this consumption is directly proportional to the activity of the aaRS. If the tested compound, at a single point concentration of 50 μM, is inhibiting the aminoacylation reaction, there is a decrease in the ATP consumption, compared to the control reaction without compound, allowing the calculation of an inhibition ratio.
(§7) When the inhibition ratio for a given compound was above 80%, IC50 determination was performed with the same enzymatic assay (using the commercial kit Kinase RR from BioThema AB, Sweden) in the presence of serial dilutions of inhibitor. Known inhibitors of LRS, VRS or IRS were used as a positive control of the assay. The IC50 was calculated based on nonlinear regression analysis.

[2] = target: T2, SauIRS (isoleucyl-tRNA synthetase from Staphylococcus aureus) (Staphylococcus aureus, UniProt P41972); assay: aaRS aminoacylation assay (ATP consumption), SauIRS
T2 construct: made in house; host or cells: Escherichia coli M15
T2 sequence (P41972 1-917): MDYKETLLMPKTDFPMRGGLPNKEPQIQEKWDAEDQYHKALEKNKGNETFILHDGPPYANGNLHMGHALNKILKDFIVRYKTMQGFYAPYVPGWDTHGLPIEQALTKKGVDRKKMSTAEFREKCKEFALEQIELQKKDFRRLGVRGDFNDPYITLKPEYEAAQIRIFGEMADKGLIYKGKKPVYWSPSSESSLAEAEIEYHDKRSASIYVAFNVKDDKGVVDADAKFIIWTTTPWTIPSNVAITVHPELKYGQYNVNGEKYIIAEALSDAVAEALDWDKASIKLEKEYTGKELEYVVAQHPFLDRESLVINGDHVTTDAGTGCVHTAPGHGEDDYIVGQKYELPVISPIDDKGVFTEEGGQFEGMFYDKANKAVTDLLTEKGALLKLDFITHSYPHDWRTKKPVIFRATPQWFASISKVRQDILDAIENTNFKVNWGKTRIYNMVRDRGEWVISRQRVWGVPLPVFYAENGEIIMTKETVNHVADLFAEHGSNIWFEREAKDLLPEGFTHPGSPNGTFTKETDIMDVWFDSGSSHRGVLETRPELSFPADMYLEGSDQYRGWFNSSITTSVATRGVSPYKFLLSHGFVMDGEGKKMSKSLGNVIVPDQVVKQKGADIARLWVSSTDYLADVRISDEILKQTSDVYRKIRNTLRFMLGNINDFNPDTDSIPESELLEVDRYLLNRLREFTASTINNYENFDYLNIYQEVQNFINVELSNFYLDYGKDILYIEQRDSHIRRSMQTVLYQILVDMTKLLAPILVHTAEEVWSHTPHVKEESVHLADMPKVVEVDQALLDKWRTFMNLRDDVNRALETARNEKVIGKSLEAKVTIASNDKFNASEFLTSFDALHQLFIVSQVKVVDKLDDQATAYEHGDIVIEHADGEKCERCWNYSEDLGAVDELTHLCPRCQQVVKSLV
Method: as §1, §2, §3, §4, §5, §6, §7

[3] = target: T3, EcoVRS (valyl-tRNA synthetase from Escherichia coli) (Escherichia coli, UniProt P07118); assay: aaRS aminoacylation assay (ATP consumption), EcoVRS
T3 construct: made in house; host or cells: Escherichia coli M15
Method: as §1, §2, §3, §4, §5, §6, §7

T3 sequence (P07118 whole entry): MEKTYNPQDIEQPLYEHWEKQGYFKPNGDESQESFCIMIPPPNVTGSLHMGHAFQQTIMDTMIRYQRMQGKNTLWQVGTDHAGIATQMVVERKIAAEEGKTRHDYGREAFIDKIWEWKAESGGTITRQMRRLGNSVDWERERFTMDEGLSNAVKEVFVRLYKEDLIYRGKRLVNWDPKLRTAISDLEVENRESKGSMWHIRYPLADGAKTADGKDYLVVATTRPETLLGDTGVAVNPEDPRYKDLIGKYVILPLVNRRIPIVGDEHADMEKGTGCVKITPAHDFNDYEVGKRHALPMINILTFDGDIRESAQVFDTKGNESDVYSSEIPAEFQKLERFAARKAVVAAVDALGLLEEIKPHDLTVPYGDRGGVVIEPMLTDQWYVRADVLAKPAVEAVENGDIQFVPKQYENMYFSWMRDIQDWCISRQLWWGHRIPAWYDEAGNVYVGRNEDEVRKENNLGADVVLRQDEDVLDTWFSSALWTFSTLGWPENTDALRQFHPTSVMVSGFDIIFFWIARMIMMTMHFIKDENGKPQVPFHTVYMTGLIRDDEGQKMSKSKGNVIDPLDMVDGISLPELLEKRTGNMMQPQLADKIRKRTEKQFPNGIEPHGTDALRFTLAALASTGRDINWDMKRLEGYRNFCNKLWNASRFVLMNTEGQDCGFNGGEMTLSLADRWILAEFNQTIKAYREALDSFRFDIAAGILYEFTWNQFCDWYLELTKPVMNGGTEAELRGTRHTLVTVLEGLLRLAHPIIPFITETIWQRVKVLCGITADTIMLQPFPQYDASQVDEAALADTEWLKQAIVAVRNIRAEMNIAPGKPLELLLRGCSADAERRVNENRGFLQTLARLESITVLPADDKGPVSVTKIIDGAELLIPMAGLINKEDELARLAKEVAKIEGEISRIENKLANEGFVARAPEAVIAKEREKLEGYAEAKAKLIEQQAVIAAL

Cc1cc(-c2cccc(S(=O)(=O)NC(=O)[C@@H](N)CC3CCC3)c2)nc(N)n1 [Compound 5.31] was tested, and the “IC50 SauVRS” value [1] was “i.a”, the “IC50 SauIRS” value [2] was “i.a” and the “IC50 EcoVRS” value [3] was “i.a”.
With Cc1cc(-c2cccc(S(=O)(=O)NC(=O)[C@@H](N)C3CC3)c2)nc(N)n1 [Compound 5.33] the “IC50 SauVRS” value [1] was “i.a”, the “IC50 SauIRS” value [2] was “i.a” and the “IC50 EcoVRS” value [3] was “i.a”.
For Cc1cc(-c2cccc(S(=O)(=O)NC(=O)[C@@H](N)CC3CCCCC3)c2)nc(N)n1 [Compound 5.34], the “IC50 SauVRS” value [1] was “i.a”, the “IC50 SauIRS” value [2] was “i.a” and the “IC50 EcoVRS” value [3] was “i.a”.
For Cc1cc(-c2cccc(S(=O)(=O)NC(=O)[C@@H](N)CC(C)C)c2)nc(N)n1 [Compound 5.35, (S)-2-amino-N-((3-(2-amino-6-methylpyrimidin-4-yl)phenyl)sulfonyl)-4-methylpentanamide], the “IC50 SauVRS” value [1] was “i.a”, the “IC50 SauIRS” value [2] was “i.a” and the “IC50 EcoVRS” value [3] was “i.a”.
For COc1cc(-c2cccc(S(=O)(=O)NC(=O)[C@@H](N)CC(C)C)c2)nc(N)n1 [Compound 5.36], the “IC50 SauVRS” value [1] was “i.a”, the “IC50 SauIRS” value [2] was “i.a” and the “IC50 EcoVRS” value [3] was “i.a”.
CC(C)C[C@H](N)C(=O)NS(=O)(=O)c1cccc(-c2ccnc(N)n2)c1 [Compound 5.37] was tested, and the “IC50 SauVRS” value [1] was “i.a”, the “IC50 SauIRS” value [2] was “i.a” and the “IC50 EcoVRS” value [3] was “i.a”.
CC(C)C[C@H](N)C(=O)NS(=O)(=O)c1cccc(-c2nc(N)nc3nc[nH]c23)c1 [Compound 5.38] was tested, and the “IC50 SauVRS” value [1] was “i.a”, the “IC50 SauIRS” value [2] was “i.a” and the “IC50 EcoVRS” value [3] was “i.a”.
With Cc1cc(-c2cccc(S(=O)(=O)NC(=O)[C@@H](N)CC(C)C)c2)ncn1 [Compound 5.39] the “IC50 SauVRS” value [1] was “i.a”, the “IC50 SauIRS” value [2] was “i.a” and the “IC50 EcoVRS” value [3] was “i.a”.
For CC[C@H](C)[C@H](N)C(=O)NS(=O)(=O)c1cccc(-c2cc(C)nc(N)n2)c1 [Compound 5.40], the “IC50 SauVRS” value [1] was “i.a”, the “IC50 SauIRS” value [2] was “i.a” and the “IC50 EcoVRS” value [3] was “i.a”.
In the case of CC(C)C[C@H](N)C(=O)NS(=O)(=O)c1cccc(-c2cc(-c3ccccc3)nc(N)n2)c1 [Compound 5.41], the “IC50 SauVRS” value [1] is reported as “i.a”, the “IC50 SauIRS” value [2] is reported as “i.a” and the “IC50 EcoVRS” value [3] is reported as “i.a”.
In the case of CC(C)C[C@H](N)C(=O)NS(=O)(=O)c1cccc(-c2ccncc2)c1 [Compound 5.42], the “IC50 SauVRS” value [1] is reported as “i.a”, the “IC50 SauIRS” value [2] is reported as “i.a” and the “IC50 EcoVRS” value [3] is reported as “i.a”.
With CC(C)C[C@H](N)C(=O)NS(=O)(=O)c1cccc(-c2ccnc(N)c2)c1 [Compound 5.43] the “IC50 SauVRS” value [1] was “i.a”, the “IC50 SauIRS” value [2] was “i.a” and the “IC50 EcoVRS” value [3] was “i.a”.
CC(C)C[C@H](N)C(=O)NS(=O)(=O)c1cccc(-c2cccc(N)n2)c1 [Compound 5.44] was tested, and the “IC50 SauVRS” value [1] was “i.a”, the “IC50 SauIRS” value [2] was “i.a” and the “IC50 EcoVRS” value [3] was “i.a”.
CC(C)C[C@H](N)C(=O)NS(=O)(=O)c1cccc(-c2cc(N)nc(N)n2)c1 [Compound 5.45] was tested, and the “IC50 SauVRS” value [1] was “i.a”, the “IC50 SauIRS” value [2] was “i.a” and the “IC50 EcoVRS” value [3] was “i.a”.
With CC(C)C[C@H](N)C(=O)NS(=O)(=O)c1cccc(-c2cc(N)ncn2)c1 [Compound 5.46] the “IC50 SauVRS” value [1] was “i.a”, the “IC50 SauIRS” value [2] was “i.a” and the “IC50 EcoVRS” value [3] was “i.a”.
With CCc1cc(-c2cccc(S(=O)(=O)NC(=O)[C@@H](N)CC(C)C)c2)nc(N)n1 [Compound 5.47] the “IC50 SauVRS” value [1] was “i.a”, the “IC50 SauIRS” value [2] was “i.a” and the “IC50 EcoVRS” value [3] was “i.a”.
With CC(C)C[C@H](N)C(=O)NS(=O)(=O)c1cccc(-c2ncnc(N)n2)c1 [Compound 5.48] the “IC50 SauVRS” value [1] was “i.a”, the “IC50 SauIRS” value [2] was “i.a” and the “IC50 EcoVRS” value [3] was “i.a”.
In the case of CC(C)C[C@H](N)C(=O)NS(=O)(=O)c1cccc(-c2ccnc(Cl)n2)c1 [Compound 5.49], the “IC50 SauVRS” value [1] is reported as “i.a”, the “IC50 SauIRS” value [2] is reported as “i.a” and the “IC50 EcoVRS” value [3] is reported as “i.a”.
With CC(C)C[C@H](N)C(=O)NS(=O)(=O)c1cccc(-c2ccnc(O)n2)c1 [Compound 5.50] the “IC50 SauVRS” value [1] was “i.a”, the “IC50 SauIRS” value [2] was “i.a” and the “IC50 EcoVRS” value [3] was “i.a”.
